Read-outs that look alike come from different tables or passages of the source.
Legend:
[1] = tested on: MCF7 human breast cancer cells; assay: cells
Experimental: (§1) The cytotoxicity of drugs (or drug metabolites) was determined by staining the slide containing the cells with a Live/Dead test kit (Molecular Probes) that produces a green fluorescent response from living cells. At the end of the 3-day culture period post stamping, the three-dimensional cell chip (DataChip) was rinsed three times in PBS for 5 min each. One mL of a dye solution containing 0.5 μM calcein AM was applied to each three-dimensional cell chip using a glass slide with 1 mm thick perimeter gasket acting as a barrier to prevent loss of the dye solution.

[2] = tested on: Hep3B human hepatoma cells; assay: cells; conditions: read-out: Calculated IC50, Alginate DataChip (Hep3B)
Experimental: as §1
(§2) Following incubation for 50 minutes at room temperature, excess dye in the collagen-gel drops was removed by incubating the slides in a petri dish containing 16 mL of PBS for 30 min on a gyratory shaker at 60 rpm. The three-dimensional cell chip was dried thoroughly with nitrogen. The three-dimensional cell chip was scanned with the GenePix® Professional 4200A scanner equipped with blue laser and standard blue filter to determine the green fluorescent intensity and was quantified from the scanning image using GenePix Pro 6.0 (Molecular Devices Co.).
(§3) Percent live cells=(FReaction/FMax)×100
(§4) where FReaction is the green fluorescence intensity of the reaction spot and FMax is the green fluorescence intensity of untreated fully viable cells.
(§5) The alginate-containing three-dimensional cell chip (DataChip) was prepared as follows. A poly-L-lysine (PLL)-barium mixture was prepared by mixing equal volume of sterile PLL (0.01 w/v % from Sigma) and barium chloride solution in distilled water (0.1 M from Sigma).
(§6) A suspension of cells in low-viscosity alginate (from Sigma) was prepared by mixing a Hep3B cell suspension in 5% FBS-supplemented DMEM with alginate solution in distilled water so that the final concentration of cells and alginate are 6×10^6 cells/mL and 1% (w/v), respectively.
(§7) Following spotting and drying of 10 nL PLL-barium mixture on the PS-MA-treated slide, 20-nL of the cell suspension (MCF7 or HepB3; cell density of 6×10^6 cells/mL or 120 cells per spot) in alginate was spotted atop each PLL-barium spot.

MCF7 cells [3] = assay: cells; conditions: Homo sapiens, MCF7, read-out: Calculated IC50, Alginate DataChip (MCF7)
Experimental: as §1, §2, §3, §4, §5, §6, §7

[4] = Cytotoxicity of compounds and their P450-generated metabolites, Hep3B DataChip stamped with MetaChip; conditions: human
Experimental: as §1, §2, §3, §4
(§8) For efficient stamping, MTMOS-coated glass slides were prepared to contain a sol-gel barrier on the periphery of the slides.
(§9) To this end […] of methyltrimethoxysilane (MTMOS) sol was prepared by mixing 2 mL of MTMOS with 1 mL of HCl (10 mM) and sonicated for 10 min. The sol was spotted on the periphery of the MTMOS-coated slide and then the slide was baked in an oven for 30 min at 120° C.
(§10) The MetaChip was stored at −80° C. for 1 day prior to use. Cytotoxicity studies were performed by spotting 20 nL of test compound in distilled water (0-2 mM) onto the MetaChip spots and partially dried.
(§11) This was followed by stamping of the three-dimensional cell chip (DataChip) containing either MCF7 or Hep3B cells onto the MetaChip.
(§12) To this end, a MetaChip consisting of 20×54 alginate spots was prepared; each spot containing a single human P450 isoform (CYP1A2, CYP2D6, or CYP3A4), a mixture of the three isoforms, or no P450 as a test compound only control. Addition of test compounds was carried out by overlay spotting of solutions of these compounds onto the MetaChip, which was then stamped on top of the DataChip.
(§13) Using three DataChips in combination with three MetaChips, IC50 values for 27 compounds and their P450-generated metabolites against human Hep3B cells were determined. […] The three P450 isoforms were used along with an equimolar mixture of the three isoforms and a test compound only control without P450. The test compounds were added to the MetaChip, which was then stamped onto the DataChip and incubated for 6 h. This was followed by removing the DataChip, rinsing with growth medium, incubating in media for 3 days, and then stained for cell viability.

human Hep3B cells = assay: in vitro
Experimental: as §1, §2, §3, §4, §8, §9, §10, §11, §12, §13

MCF7 cells [5] = assay: cells; conditions: Homo sapiens
MCF7 cells [6] = assay: cells; conditions: Homo sapiens; remark: listed apart in the source
MCF7 cells [7] = conditions: read-out: IC50, 2D literature values; 2D cultures in 96-well plates, Refs 1-5; cited from earlier work
[8] = P450 activity determination with blue fluorogenic substrates in 384-well plate; type: biochemical, human
Experimental: To assess the intrinsic reactivity of P450s in alginate matrices, reactions were performed in wells of a 384-well plate. P450-containing alginate sol was prepared by dispensing 24 μL of P450 baculosomes (1 nmol P450/mL), 36 μL of distilled water, and 60 μL of alginate (2%) in distilled water. Five microliters of this solution were spotted onto 5 μL of the dried PLL-barium spot in a 384-well. Followed by storage of the P450-alginate gel drops at −80° C. for 1 day, 25 μL of blue fluorogenic substrates (BOMCC for CYP3A4 and EOMCC for CYP1A2 and CYP2D6) containing 250 μM NADP^+ and its regeneration system (8 mM glucose-6-phosphate and 1 U/mL glucose-6-phosphate dehydrogenase) in 50 mM potassium phosphate buffer (pH 8) were dispensed onto the thawed P450-alginate gel drop.
As a control, soluble P450 without alginate was also used. The blue fluorescent 7-hydroxycoumarin released by P450-catalyzed oxidation of BOMCC or EOMCC was monitored as a function of time using a BioAssay Reader HTS 7000 Plus (Perkin Elmer, Norwalk, Conn.) at an excitation wavelength of 430 nm and emission wavelength of 497 nm.

[9] = MCF7, read-out: Calculated IC50, Collagen DataChip (MCF7)
[10] = MCF7, read-out: IC50 evaluated on the DataChip
[11] = IC50, CYP1A2, Hep3B DataChip, MetaChip spots with CYP1A2
[12] = IC50, CYP2D6, Hep3B DataChip, MetaChip spots with CYP2D6
[13] = IC50, CYP3A4, Hep3B DataChip, MetaChip spots with CYP3A4
[14] = IC50, Mixture, Hep3B DataChip, equimolar mixture of CYP1A2, CYP2D6, CYP3A4
[15] = IC50, No P450, Hep3B DataChip, test compound only control without P450
[16] = MCF7, read-out: Calculated IC50, 2D 96-well plate
[17] = MCF7, read-out: IC50 from 2D control in the 96-well plate
[18] = MCF7, read-out: Calculated IC50, 3D 96-well plate
[19] = MCF7, read-out: IC50 from 3D control
[20] = Soluble enzyme (control, in solution)

Row | Molecule | IC50 [1, 9] | IC50 [1, 10] | IC50 [2] | IC50 (MCF7 cells [3]) | IC50 at 6 h [4, 11] | IC50 at 6 h [4, 12] | IC50 at 6 h [4, 13] | IC50 at 6 h [4, 14] | IC50 at 6 h [4, 15] | IC50 (MCF7 cells [5]; [16]) | IC50 (MCF7 cells [5]; [17]) | IC50 (MCF7 cells [6]; [18]) | IC50 (MCF7 cells [6]; [19]) | IC50 (MCF7 cells [7]) | Km ([8]; In Alginate) | kcat ([8]; In Alginate) | Km [8, 20] | kcat [8, 20] | also measured
1 | O=c1[nH]cc(F)c(=O)[nH]1 [5-Fluorouracil, 5-fluorouracil] | 82.4 ± 10.3 µM | 51.5 ± 3.3 µM | 66.1 ± 8.8 µM | 84.6 ± 18.7 µM | 218 ± 44.3 µM | 132 ± 20.7 µM | 349 ± 72.3 µM | 436 ± 77 µM | 196 ± 27.2 µM | 68.9 ± 13.5 µM | 41.7 ± 4.6 µM | 49 ± 3 µM | 34.7 ± 1.2 µM | 4.1 to 30 µM |  |  |  |  | Activation or deactivation of the toxic response by CYP3A4 (human Hep3B cells): deactivated
2 | COc1cccc2c1C(=O)c1c(O)c3c(c(O)c1C2=O)C[C@@](O)(C(=O)CO)C[C@@H]3O[C@H]1C[C@H](N)[C@H](O)[C@H](C)O1 [Doxorubicin, doxorubicin] | 0.43 ± 0.09 µM | 0.869 ± 0.057 µM | 0.29 ± 0.09 µM | 0.19 ± 0.08 µM | 1.01 ± 0.22 µM | 4.94 ± 1.36 µM | 19.3 ± 5.45 µM | 9.71 ± 2.22 µM | 0.69 ± 0.01 µM | 0.06 ± 0.01 µM | 0.0647 ± 0.0044 µM | 0.23 ± 0.02 µM | 69.2 ± 3 µM | 0.01 to 55 µM |  |  |  |  | IC50 at 6 h ([4]; IC50 values, Hep3B DataChip): < 1 µM; Activation or deactivation of the toxic response by CYP2D6 (human Hep3B cells): activated
3 | CYP1A2: human P450 isoform (baculosomes), soluble or encapsulated in alginate; assayed with EOMCC (protein, UniProt P05177 2-516, looked up) Cytochrome P450 1A2: ALSQSVPFSATELLLASAIFCLVFWVLKGLRPRVPKGLKSPPEPWGWPLLGHVLTLGKNPHLALSRMSQRYGDVLQIRIGSTPVLVLSRLDTIRQALVRQGDDFKGRPDLYTSTLITDGQSLTFSTDSGPVWAARRRLAQNALNTFSIASDPASSSSCYLEEHVSKEAKALISRLQELMAGPGHFDPYNQVVVSVANVIGAMCFGQHFPESSDEMLSLVKNTHEFVETASSGNPLDFFPILRYLPNPALQRFKAFNQRFLWFLQKTVQEHYQDFDKNSVRDITGALFKHSKKGPRASGNLIPQEKIVNLVNDIFGAGFDTVTTAISWSLMYLVTKPEIQRKIQKELDTVIGRERRPRLSDRPQLPYLEAFILETFRHSSFLPFTIPHSTTRDTTLNGFYIPKKCCVFVNQWQVNHDPELWEDPSEFRPERFLTADGTAINKPLSEKMMLFGMGKRRCIGEVLAKWEIFLFLAILLQQLEFSVPPGVKVDLTPIYGLTMKHARCEHVQARLRFSIN |  |  |  |  |  |  |  |  |  |  |  |  |  |  | 3.61 ± 0.43 µM | 0.0085 ± 0.00517 s⁻¹ | 5.78 ± 0.8 µM | 0.0225 ± 0.0013 s⁻¹ | 
4 | CYP2D6: human P450 isoform (baculosomes), soluble or encapsulated in alginate; assayed with EOMCC (protein, UniProt P10635 1-497, looked up) Cytochrome P450 2D6: MGLEALVPLAVIVAIFLLLVDLMHRRQRWAARYPPGPLPLPGLGNLLHVDFQNTPYCFDQLRRRFGDVFSLQLAWTPVVVLNGLAAVREALVTHGEDTADRPPVPITQILGFGPRSQGVFLARYGPAWREQRRFSVSTLRNLGLGKKSLEQWVTEEAACLCAAFANHSGRPFRPNGLLDKAVSNVIASLTCGRRFEYDDPRFLRLLDLAQEGLKEESGFLREVLNAVPVLLHIPALAGKVLRFQKAFLTQLDELLTEHRMTWDPAQPPRDLTEAFLAEMEKAKGNPESSFNDENLRIVVADLFSAGMVTTSTTLAWGLLLMILHPDVQRRVQQEIDDVIGQVRRPEMGDQAHMPYTTAVIHEVQRFGDIVPLGVTHMTSRDIEVQGFRIPKGTTLITNLSSVLKDEAVWEKPFRFHPEHFLDAQGHFVKPEAFLPFSAGRRACLGEPLARMELFLFFTSLLQHFSFSVPTGQPRPSHHGVFAFLVSPSPYELCAVPR |  |  |  |  |  |  |  |  |  |  |  |  |  |  | 6.37 ± 1.25 µM | 0.0012 ± 0.00017 s⁻¹ | 12.5 ± 4.64 µM | 0.002 ± 0.0005 s⁻¹ | 

From US20090221441A1, “THREE-DIMENSIONAL CELLULAR ARRAY CHIP AND PLATFORM FOR TOXICOLOGY ASSAYS” (Rensselaer Polytechnic Institute, priority 2005, published 2009)
